Results on 13 compounds are retold here after publication PMC12147761 (Journal of medicinal chemistry, 2025).

As usually defined, the IC50 is the concentration that inhibits the measured activity by half. The low end stands for greater potency in that assay, the high end for weaker potency in that assay. As a reminder, the Papp A→B is the apparent permeability from the apical to the basolateral side of a cell layer. Broadly, the Papp B→A is how fast a substance crosses the layer from the basolateral side. Broadly, the efflux ratio is the permeability from basolateral to apical divided by that in the opposite direction, in the common usage. What is called AUC(0-t) is the area under the concentration-time curve up to a stated or last time point. The Cmax is the highest concentration seen after dosing. The term Tmax denotes the time at which the peak concentration occurs. A word on the clearance: it is the volume of plasma or blood freed of the substance per unit of time. A higher clearance goes with a high capacity for elimination. As usually defined, the half-life is how long it takes for the measured level to halve. One may read the bioavailability as dose-corrected exposure relative to a reference, in per cent.

In data set [1] the target is T1, CDK12/CycK (Homo sapiens, UniProt Q9NYV4).
T1 construct: ICE Bioscience Inc. (assay service)
Put plainly: ADP-Glo kinase assay, CDK12. The class given is biochemical. Particulars: for IC50: ADP-Glo kinase assay, means from three independent experiments. Here is the method:
(§1) The kinase inhibitory activities of the compounds against CDK12 and CDK13 were preliminarily evaluated using the ADP-Glo kinase assay. Cell growth inhibition was determined in VCaP prostate cancer cells, which were characterized as being sensitive to CDK12/13 inhibition.[14]
All the kinase activity were performed using an ADP-Glo kinase assay by ICE Bioscience Inc. (Beijing, China). Kinome selectivity profiles (KINOMEscan profiling) and Kd detection were performed by Eurofins DiscoveryX Corporation (San Diego, CA, USA).

For data set [2], the target named is T2, CDK13/CycK (Homo sapiens, UniProt Q14004).
T2 construct: ICE Bioscience Inc. (assay service)
Put plainly: ADP-Glo kinase assay, CDK13. Format: biochemical. To be noted: means from three independent experiments. Here is the method: as §1
Background: ADP-Glo first removes unused ATP, then detects ADP through luciferase.

The test system of data set [3] is VCaP prostate cancer cells. Put plainly: Cell proliferation assay (CellTiter-Glo), VCaP. The class given is cell-based, human. To be noted: for IC50: Homo sapiens, VCaP, 120 h, cell growth inhibition, 5 days, CellTiter-Glo. The procedure:
as §1
Cells were seeded in 96-well plates and incubated at 37 °C and 5% CO2. After overnight incubation, serial dilutions of tested compounds were added to the plate. The assay was tested with Cell Titer-Glo (Promega) after 5 days. The luminescence signal was detected by the Infinite M1000 Pro plate reader (Tecan), and the IC50 values were calculated by GraphPad Prism 10.
(In general: Cellular ATP, detected with luciferase, serves as a proxy for viable cell number.)

Data set [4] in a line: Permeability and efflux ratio in Caco-2 cells. To be noted: human. The class given is in vitro ADME. (In general: Passage across Caco-2 layers is used to estimate intestinal permeability.)
Data set [5] relates to VCaP CRPC xenograft. Put plainly: In vivo efficacy, VCaP CRPC mouse model. On the set-up: species or system mice. Particulars: YJZ5118 i.p., q.d., uprosertib p.o., 5x/week, 27 days, compared to vehicle. The procedure: All the animal experiments were performed under an approved animal protocol (Protocol ID: PRO00010006, PI, Arul Chinnaiyan) by the Institutional Animal Care & Use Committee of the University of Michigan. Six- to eight-week-old NSG (Jackson Laboratory) or CB17SCID female (Charles River Laboratory) mice were in a regular SPF housing room prior to cell injection. Briefly, 5 ×10^6 cells of VCaP CRPC were injected […] of NSG or CB17SCID mice, respectively. After tumor size reached approximately 200–400 mm^3, animals were subjected to drug treatment. […] Vehicle consisted of 20% PEG400, 6% Cremophor EL, and 74% PBS solution. Tumors were collected at the end of the experiment for Western blot analysis.

Data set [6] deals with VCaP cells. Put plainly: Cell apoptosis assay by flow cytometry. Format: cell-based, human. To be noted: YJZ5118 at 100 nM. Here is the method:
Cells were seeded in six-well plates and incubated for 24 h at 37 °C and 5% CO2. Cells were then treated with the indicated concentrations of the tested compounds for 48 h. The treated cells then were collected, centrifuged and washed twice by cold PBS. […] Cell samples were analyzed with flow cytometry (SH800S cell sorter, Sony Biotechnology).

Data set [7] has as its system VCaP cells. Put plainly: Washout experiment, cell growth. The class given is cell-based, human. Particulars: VCaP cells treated 6 h, compound removed, 5 days in compound-free media. The procedure:
The previously reported reversible inhibitor 10 was included for comparison. VCaP cells were treated with the compounds for 6 h, after which the compounds were removed, and the cells were cultured in compound-free media for 5 days.

The subject of data set [8] is 468 kinases. Put plainly: KINOMEscan kinase selectivity profiling. Format: binding. To be noted: 1 μM; 403 non-mutant kinases. The procedure: Figure S1. The results of selectivity profiling study of compound 14h. (A) Chemical structure and the K d values of compound 14h against CDK12/13, and the KinomeScan kinase selectivity proﬁles of compound 14h at 1 μM against 468 kinases; (B) KinomeScan profiling results of compound 14h against CDK family members.
(1 picture or pasted object on this page, not shown here)

Data set [9] is described as follows: Pharmacokinetics study in mice. Format: in vivo, ICR mice. To be noted: both sexes, ICR, mouse, plasma.

T1 sequence (Q9NYV4 whole entry): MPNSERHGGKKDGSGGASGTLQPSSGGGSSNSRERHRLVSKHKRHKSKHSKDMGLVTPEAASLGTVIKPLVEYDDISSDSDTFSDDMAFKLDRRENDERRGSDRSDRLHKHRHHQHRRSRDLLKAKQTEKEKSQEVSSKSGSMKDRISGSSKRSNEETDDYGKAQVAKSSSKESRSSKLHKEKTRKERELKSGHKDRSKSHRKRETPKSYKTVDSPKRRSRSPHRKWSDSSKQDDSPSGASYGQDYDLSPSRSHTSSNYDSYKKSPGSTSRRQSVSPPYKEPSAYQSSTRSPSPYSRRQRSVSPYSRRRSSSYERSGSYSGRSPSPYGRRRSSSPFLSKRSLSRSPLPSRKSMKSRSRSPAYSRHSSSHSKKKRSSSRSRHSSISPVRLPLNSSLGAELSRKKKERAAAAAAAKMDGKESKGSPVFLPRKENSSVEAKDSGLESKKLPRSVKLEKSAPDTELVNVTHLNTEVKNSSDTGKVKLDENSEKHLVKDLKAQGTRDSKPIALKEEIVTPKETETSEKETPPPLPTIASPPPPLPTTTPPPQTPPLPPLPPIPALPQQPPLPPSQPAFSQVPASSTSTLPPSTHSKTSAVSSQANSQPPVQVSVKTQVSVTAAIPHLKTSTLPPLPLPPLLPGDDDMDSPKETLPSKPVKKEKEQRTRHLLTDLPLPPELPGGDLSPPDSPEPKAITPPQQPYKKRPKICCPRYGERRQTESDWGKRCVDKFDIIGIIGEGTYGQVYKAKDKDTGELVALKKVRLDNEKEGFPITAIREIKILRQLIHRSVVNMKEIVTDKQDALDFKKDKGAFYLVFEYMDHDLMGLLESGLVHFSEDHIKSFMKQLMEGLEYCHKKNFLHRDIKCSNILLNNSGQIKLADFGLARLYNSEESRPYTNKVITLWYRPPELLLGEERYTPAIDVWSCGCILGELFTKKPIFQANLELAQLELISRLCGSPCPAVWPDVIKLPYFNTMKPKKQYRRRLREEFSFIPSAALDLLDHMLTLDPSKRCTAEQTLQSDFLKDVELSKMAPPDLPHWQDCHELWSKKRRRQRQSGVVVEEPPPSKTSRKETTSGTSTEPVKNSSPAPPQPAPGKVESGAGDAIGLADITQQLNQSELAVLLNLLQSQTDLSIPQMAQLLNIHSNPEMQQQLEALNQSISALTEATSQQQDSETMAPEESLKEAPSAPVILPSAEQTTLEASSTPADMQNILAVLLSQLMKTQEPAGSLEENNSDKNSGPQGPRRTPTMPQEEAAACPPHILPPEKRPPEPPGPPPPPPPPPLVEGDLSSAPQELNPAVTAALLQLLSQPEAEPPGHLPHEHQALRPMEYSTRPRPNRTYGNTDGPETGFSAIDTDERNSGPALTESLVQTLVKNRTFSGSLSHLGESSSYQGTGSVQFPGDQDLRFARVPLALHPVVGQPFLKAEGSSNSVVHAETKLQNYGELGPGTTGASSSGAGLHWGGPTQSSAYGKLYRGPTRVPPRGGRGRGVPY
T1 sequence (O75909 whole entry partner): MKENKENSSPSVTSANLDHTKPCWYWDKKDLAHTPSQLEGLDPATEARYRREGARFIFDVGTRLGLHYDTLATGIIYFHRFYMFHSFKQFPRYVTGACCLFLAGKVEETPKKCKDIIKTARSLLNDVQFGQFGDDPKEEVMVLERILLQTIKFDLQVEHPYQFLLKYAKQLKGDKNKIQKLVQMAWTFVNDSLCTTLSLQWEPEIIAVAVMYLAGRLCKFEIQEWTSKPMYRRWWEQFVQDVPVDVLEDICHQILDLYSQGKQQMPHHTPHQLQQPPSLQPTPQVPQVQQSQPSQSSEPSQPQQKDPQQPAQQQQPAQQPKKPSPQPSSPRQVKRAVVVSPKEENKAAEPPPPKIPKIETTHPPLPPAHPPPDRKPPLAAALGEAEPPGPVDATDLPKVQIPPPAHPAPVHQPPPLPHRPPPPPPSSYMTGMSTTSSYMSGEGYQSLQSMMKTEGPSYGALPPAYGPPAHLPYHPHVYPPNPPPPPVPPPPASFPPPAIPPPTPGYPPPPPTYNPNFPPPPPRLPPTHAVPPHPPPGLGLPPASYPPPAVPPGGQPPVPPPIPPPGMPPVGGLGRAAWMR
T2 sequence (Q14004 whole entry): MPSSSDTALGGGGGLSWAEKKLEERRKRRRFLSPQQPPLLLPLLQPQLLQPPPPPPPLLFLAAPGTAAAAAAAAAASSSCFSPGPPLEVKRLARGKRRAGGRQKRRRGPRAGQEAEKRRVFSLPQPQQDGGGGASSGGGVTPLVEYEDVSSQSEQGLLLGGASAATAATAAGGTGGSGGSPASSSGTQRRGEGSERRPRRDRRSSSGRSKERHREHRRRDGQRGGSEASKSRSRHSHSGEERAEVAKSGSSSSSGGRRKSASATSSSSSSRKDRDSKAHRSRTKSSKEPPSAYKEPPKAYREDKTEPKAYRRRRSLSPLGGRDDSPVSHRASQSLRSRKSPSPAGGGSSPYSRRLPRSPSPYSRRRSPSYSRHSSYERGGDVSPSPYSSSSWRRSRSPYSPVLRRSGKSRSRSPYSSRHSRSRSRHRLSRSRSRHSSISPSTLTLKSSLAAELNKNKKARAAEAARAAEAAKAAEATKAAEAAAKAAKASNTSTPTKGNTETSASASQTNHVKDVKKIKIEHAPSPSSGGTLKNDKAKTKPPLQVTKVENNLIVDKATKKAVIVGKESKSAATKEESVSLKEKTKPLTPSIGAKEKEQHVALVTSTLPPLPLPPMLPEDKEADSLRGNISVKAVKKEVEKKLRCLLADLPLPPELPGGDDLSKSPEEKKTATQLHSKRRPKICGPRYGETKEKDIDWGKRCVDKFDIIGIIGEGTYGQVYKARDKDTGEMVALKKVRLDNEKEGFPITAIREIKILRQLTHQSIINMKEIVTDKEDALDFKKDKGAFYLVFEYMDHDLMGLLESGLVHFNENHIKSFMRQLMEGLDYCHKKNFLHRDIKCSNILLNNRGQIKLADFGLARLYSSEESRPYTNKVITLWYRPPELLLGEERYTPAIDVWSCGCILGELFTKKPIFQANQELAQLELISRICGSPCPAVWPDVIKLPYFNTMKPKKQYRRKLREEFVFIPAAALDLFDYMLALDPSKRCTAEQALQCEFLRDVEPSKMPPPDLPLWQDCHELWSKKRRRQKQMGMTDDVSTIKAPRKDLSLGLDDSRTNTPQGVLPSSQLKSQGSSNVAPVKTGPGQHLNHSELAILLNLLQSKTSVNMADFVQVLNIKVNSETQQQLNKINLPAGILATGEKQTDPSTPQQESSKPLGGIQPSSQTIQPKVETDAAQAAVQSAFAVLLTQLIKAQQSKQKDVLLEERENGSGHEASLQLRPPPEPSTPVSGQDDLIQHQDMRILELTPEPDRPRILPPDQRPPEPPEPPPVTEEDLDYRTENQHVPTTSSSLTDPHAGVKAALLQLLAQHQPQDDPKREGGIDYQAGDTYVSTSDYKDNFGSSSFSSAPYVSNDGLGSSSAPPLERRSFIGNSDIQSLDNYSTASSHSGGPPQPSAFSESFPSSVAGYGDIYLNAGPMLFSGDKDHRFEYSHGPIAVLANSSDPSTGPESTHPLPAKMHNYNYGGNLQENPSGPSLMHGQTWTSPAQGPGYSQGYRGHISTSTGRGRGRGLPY
T2 sequence (O75909 whole entry partner): as the sequence (O75909 whole entry partner) above

In [1], `C=CC(=O)Nc1cccc(N(C(=O)NCc2ccccc2)[C@H]2CC[C@H](Nc3ccc(C#N)cn3)CC2)c1` [Compound 14b, N-(3-(3-benzyl-1-((1r,4r)-4-((5-cyanopyridin-2-yl)amino)cyclohexyl)ureido)phenyl)acrylamide] came in with an IC50 of 506 nM. In data set [1] (CDK12 and CDK13), the “reduction in kinase inhibitory potency compared with 14a” value is 7- to 13 fold. Further, 99 nM corresponded to half-maximal inhibition in data set [2] (IC50). In data set [3], the “fold more potency than 14a in the growth inhibition assay against VCaP cells” value stood at 3.4 fold and inhibition was half-maximal at 96.2 nM (IC50). For the same compound, in data set [4], the Papp A→B is 0.91 ×10⁻⁶ cm/s, the Papp B→A was 13.7 ×10⁻⁶ cm/s and the efflux ratio was 15.

With `Cn1ncc(Cl)c1-c1cc(C(=O)N[C@H](CN)Cc2ccc(F)c(F)c2)oc1Cl` [Uprosertib, reference compound], the tumor growth result in data set [5] is “significant reduction in tumor growth”.

Take `C=CC(=O)Nc1cc(N(C(=O)NCc2ccccc2)[C@H]2CC[C@H](Nc3ccc(C#N)cn3)CC2)ccc1-c1ccc(=O)n(C)c1` [Compound 14a, N-(5-(3-benzyl-1-((1r,4r)-4-((5-cyanopyridin-2-yl)amino)cyclohexyl)ureido)-2-(1-methyl-6-oxo-1,6-dihydropyridin-3-yl)phenyl)acrylamide]: the IC50 in [1] amounted to 37.9 nM. This compound came in with a half-inhibitory concentration (IC50) in data set [2] of 14.9 nM. Also, in data set [3], the “antiproliferative potency in VCaP cells, fold more potent than lead compound 2” value is “approximately 6 fold” and inhibition was half-maximal at 330 nM (IC50). Besides, in data set [4], the Papp A→B amounted to 0.07 ×10⁻⁶ cm/s, the Papp B→A came out at 5.25 ×10⁻⁶ cm/s and the efflux ratio is 72.6.

Turning to `CN(C)C/C=C/C(=O)Nc1ccc(C(=O)N2CCC[C@@H](Nc3ncc(Cl)c(-c4c[nH]c5ccccc45)n3)C2)cc1` [Compound 3, THZ531, reference compound], the results for the IC50 in data set [1], in data set [2] and in [3] were 77.4 nM, 63.3 nM and 33.5 nM, respectively. In [6], the apoptosis rate is reported as 24.9%.

Take `Cn1cc(-n2cnc3c(NCc4nc5cc(Cl)c(Cl)cc5[nH]4)nc(N4CCOCC4)nc32)cn1` [Compound 10, SR-4835, reference compound]: the “cell growth inhibitory effect after washout” value in data set [7] is listed as “nearly completely lost following washout”.

`C=CC(=O)Nc1cc(N(C(=O)NCc2ccccc2)[C@H]2CC[C@H](Nc3ccc(C#N)cn3)CC2)ccc1N1CCN(C)[C@@H](C)C1` [Compound 14h, N-(5-(3-benzyl-1-((1r,4S)-4-((5-cyanopyridin-2-yl)amino)cyclohexyl)ureido)-2-((S)-3,4-dimethylpiperazin-1-yl)phenyl)acrylamide] came in with an IC50 in data set [1] of 33.1 nM. In data set [2], it took 21.7 nM to reach half-maximal inhibition (IC50). Inhibition in data set [3] was half-maximal at 4.3 nM (IC50). Also, in [8], the “Number of Hits, S (1)” value is 0; the “Number of Hits, S (10)” value is listed as 2; the “Number of Hits, S (35)” value came to 6; the “Selectivity Score S (10)” value was determined as 0.005. Also, the “Selectivity Score S (35)” value in data set [8] came out at 0.015. In addition, in data set [9] (iv, i.v. 2 mg/kg), the AUC(0-t) stood at 309 ng·h/mL, the concentration peaked (Cmax) at 658 ng/mL, the Tmax came out at 4.8 min and the clearance stood at 108 mL/min/kg. The same compound had a half-life in data set [9] (iv, i.v. 2 mg/kg) of 21.6 min. Also, the bioavailability in [9] (po, 10 mg/kg, p.o. 10 mg/kg, read-out: F (oral bioavailability)) turned out to be 42.2%. Further, in [9] (po, p.o. 10 mg/kg), the AUC(0-t) turned out to be 652 ng·h/mL, the Cmax amounted to 499 ng/mL, the Tmax was determined as 30 min and the half-life was 37.2 min.

For the compound `C=CC(=O)Nc1cc(N(C(=O)NCc2ccccc2)[C@H]2CC[C@H](Nc3ccc(C#N)cn3)CC2)ccc1N1CCOCC1` [Compound 14j, N-(5-(3-benzyl-1-((1r,4r)-4-((5-cyanopyridin-2-yl)amino)cyclohexyl)ureido)-2-morpholinophenyl)acrylamide], the results for the IC50 in data set [1], in [2] and in data set [3] were 55 nM, 12.8 nM and 59.9 nM, respectively.

Turning to `C=CC(=O)Nc1cc(N(C(=O)NCc2ccccc2)[C@H]2CC[C@H](Nc3ccc(C#N)cn3)CC2)ccc1N1CCN(C(C)=O)CC1` [Compound 14i, N-(2-(4-acetylpiperazin-1-yl)-5-(3-benzyl-1-((1r,4r)-4-((5-cyanopyridin-2-yl)amino)cyclohexyl)ureido)phenyl)acrylamide], the IC50 in data set [1] worked out at 331 nM; in data set [2], 164 nM; in [3], 45.5 nM. In data set [1] (CDK12 and CDK13), the “fold weaker potency against the kinases compared to 14f” value was 2- to 3 fold.

For the compound `C=CC(=O)Nc1cc(N(C(=O)NCc2ccccc2)[C@H]2CC[C@H](Nc3ccc(C#N)cn3)CC2)ccc1N1CCC(N(C)C)C1` (some centres unmarked) [Compound 14e, N-(5-(3-benzyl-1-((1r,4r)-4-((5-cyanopyridin-2-yl)amino)cyclohexyl)ureido)-2-(3-(dimethylamino)pyrrolidin-1-yl)phenyl)acrylamide], the IC50 in [1] was 568 nM; in [2] it was 177 nM; in [3] it was 57.6 nM.

On to `C=CC(=O)Nc1cc(N(C(=O)NCc2ccccc2)[C@H]2CC[C@H](Nc3ccc(C#N)cn3)CC2)ccc1N(C)CCN(C)C` [Compound 14c, N-(5-(3-benzyl-1-((1r,4r)-4-((5-cyanopyridin-2-yl)amino)cyclohexyl)ureido)-2-((2-(dimethylamino)ethyl)(methyl)amino)phenyl)acrylamide], for which the IC50 in data set [1] was determined as 191 nM; in data set [2], 79.3 nM; in [3], 44.4 nM. The “antiproliferative potency in VCaP cells, fold more potent than lead compound 2” value in data set [3] is reported as “approximately 44 fold”.

Take `C=CC(=O)Nc1cc(N(C(=O)NCc2ccccc2)[C@H]2CC[C@H](Nc3ccc(C#N)cn3)CC2)ccc1N1CC(N(C)C)C1` [Compound 14d, N-(5-(3-benzyl-1-((1r,4r)-4-((5-cyanopyridin-2-yl)amino)cyclohexyl)ureido)-2-(3-(dimethylamino)azetidin-1-yl)phenyl)acrylamide]: the values for the IC50 in [1], in [2] and in [3] were 151 nM, 73.7 nM and 133 nM, respectively.

In the case of `C=CC(=O)Nc1cc(N(C(=O)NCc2ccccc2)[C@H]2CC[C@H](Nc3ccc(C#N)cn3)CC2)ccc1N1CCN(C)CC1` [Compound 14f, N-(5-(3-benzyl-1-((1r,4r)-4-((5-cyanopyridin-2-yl)amino)cyclohexyl)ureido)-2-(4-methylpiperazin-1-yl)phenyl)acrylamide], the IC50 in data set [1] worked out at 130 nM; in [2], 66.8 nM; in [3], 39.9 nM.

For `C=CC(=O)Nc1cc(N(C(=O)NCc2ccccc2)[C@H]2CC[C@H](Nc3ccc(C#N)cn3)CC2)ccc1N1C[C@H]2C[C@@H]1CN2C` [Compound 14g, N-(5-(3-benzyl-1-((1r,4R)-4-((5-cyanopyridin-2-yl)amino)cyclohexyl)ureido)-2-((1R,4R)-5-methyl-2,5-diazabicyclo[2.2.1]heptan-2-yl)phenyl)acrylamide], the IC50 in data set [1] came to 209 nM; in data set [2] it was 83.9 nM; in data set [3] it was 76.3 nM.
